# According to US10626368B2, “Method for inducing cerebral cortex neurons” (KYOTO UNIVERSITY, priority 2015, dated 2020):
# How the values were obtained:
# [1] = test system: ES cells or the iPS cells; assay: qPCR of marker gene expression in cells differentiated with added inhibitors; assay type: cell-based, human; details: 10 nM C59, spheres, qPCR
# Source text: (§1) Human ES cells (KhES-1) were obtained from Institute for Frontier Medical Sciences, Kyoto University (Suemori H, et al. Biochem Biophys Res Commun. 345: 926-32, 2006). The human iPS cells 404C2 are cells obtained by introducing Oct3/4, Sox2, Klf4, L-MYC, LIN28 and p53shRNA into human fibroblasts, using an episomal vector, and these cells were obtained from Professor Yamanaka et al. in Kyoto University (Okita, et al, Nat Methods. 8: 409-412, 2011). The human iPS cells 836B1 are cells obtained by introducing Oct3/4, Sox2, Klf4, L-MYC, LIN28, GLIS1 and p53shRNA into human fibroblasts, using an episomal vector, and these cells were obtained from Professor Yamanaka et al. in Kyoto University. The ES cells and the iPS cells were cultured on SNL cells (Takahashi K, et al, Cell. 131: 861-872, 2007).
# On the day before induction of differentiation, in order to separate the ES cells or the iPS cells, which had been cultured in a culture medium to which 10 μM Y-27632 (WAKO) had been added, from the SNL feeder cells, the SNL cells were removed with CTK and the remaining cells were then dissociated using Accumax (ICT). The cells were transferred on a 96-well plate (Lipidure-coat 96-well plate (NOF Corporation)) in an amount of 9×10^3 cells per well. Thereafter, the cells were subjected to a suspension culture in DMEM/F12 (WAKO) comprising 50 μM Y-27632 (WAKO), 10 μM SB43152 (Sigma), 10 ng/ml bFGF (Invitrogen), various types of Wnt inhibitors (DKK1 (R & D, 500 ng/ml), C59 (Cellagen Technology, 2-10 nM), XAV (Stemgent, 500 nM-2 μM) or IWP4 (Stemgent, 500 nM-2.5 μM)), LDN193189 (Stemgent), KSR (Invitrogen), 0.1 mM MEM non-essential amino acid (Invitrogen), 0.1 mM 2-mercaptoethanol (WAKO), and 2 mM L-Gln (Invitrogen) (initiation of differentiation induction, day 0). […] Three days later, the medium was exchanged with DMEM/F12 (WAKO) comprising various types of Wnt inhibitors (DKK1, C59, XAV or IWP4 (Stemgent)), LDN193189 (Stemgent), KSR (Invitrogen), 0.1 mM MEM non-essential amino acid (Invitrogen), 0.1 mM 2-mercaptoethanol (WAKO), and 2 mM L-Gln (Invitrogen) (day 6). Thereafter, the medium was exchanged with a fresh one of the same type every 3 days, and the culture was carried out for 18 days after the initiation of differentiation induction (day 18).
# The obtained cell mass was transferred on a dish (24-well plate (BD)) coated with 50 μg/ml ornithine (Sigma), 5 μg/ml laminin (Sigma) and 5 μg/ml fibronectin (BD Bioscience Pharmingen), and the culture was continued in Neurobasal (Invitrogen), to which B27 (Invitrogen), 2 mM L-Gln, and 10 units/ml penicillin and streptomycin (Invitrogen) had been added. The culture was carried out for, at maximum, 46 days after the initiation of differentiation induction. It is to be noted that the medium was exchanged with a fresh one every 2 or 3 days.
# In the above-described induction method, 500 ng/ml DKK1, 2 nM C59, 500 nM XAV or 500 nM IWP4 was added as a Wnt inhibitor to the cells, and the obtained mixture was then cultured for 18 days. Thereafter, the expression levels of Six3 (forebrain marker), Sox1 (neuroectodermal marker), Foxg1 (cerebral cortex-forming factor), Lhx2 (cerebral cortex-forming factor), Emx2 (forebrain back portion marker), CoupTF1 (forebrain back portion marker) and Pax6 (forebrain front portion marker) genes in the cultured cells were measured by a qPCR method (FIG. 2).
# The concentration of C59 used as a Wnt inhibitor in the above-described induction method was examined. Specifically, without using C59, or using 2.5 nM, 10 nM and 1 μM C59, the cells were cultured for 18 days. […] The obtained spheres were subjected to immunostaining of using an antibody against Pax6. […] Furthermore, the expression levels of the Foxg1, Lhx2, Emx2 and CoupTF1 genes in the obtained spheres were measured according to a qPCR method (FIG. 4B). As a result, the expression level of CoupTF1 was low and the expression levels of Lhx2 and Foxg1 were high in the case of using 10 nM C59. […]
# [2] = test system: ES cells or the iPS cells; assay: Immunostaining for CoupTF1 and Ctip2 after 46 days of cerebral cortex differentiation; assay type: cell-based, human; details: 2 nM C59 as Wnt inhibitor, 46 days; compared with 500 ng/ml DKK1, 500 nM XAV
# Source text: as §1
# On the day before induction of differentiation, in order to separate the ES cells or the iPS cells, which had been cultured in a culture medium to which 10 μM Y-27632 (WAKO) had been added, from the SNL feeder cells, the SNL cells were removed with CTK and the remaining cells were then dissociated using Accumax (ICT). The cells were transferred on a 96-well plate (Lipidure-coat 96-well plate (NOF Corporation)) in an amount of 9×10^3 cells per well. Thereafter, the cells were subjected to a suspension culture in DMEM/F12 (WAKO) comprising 50 μM Y-27632 (WAKO), 10 μM SB43152 (Sigma), 10 ng/ml bFGF (Invitrogen), various types of Wnt inhibitors (DKK1 (R & D, 500 ng/ml), C59 (Cellagen Technology, 2-10 nM), XAV (Stemgent, 500 nM-2 μM) or IWP4 (Stemgent, 500 nM-2.5 μM)), LDN193189 (Stemgent), KSR (Invitrogen), 0.1 mM MEM non-essential amino acid (Invitrogen), 0.1 mM 2-mercaptoethanol (WAKO), and 2 mM L-Gln (Invitrogen) (initiation of differentiation induction, day 0). […]
# The concentration of LDN193189 used in the above-described induction method was examined. […] Furthermore, the expression levels of the CoupTF1 and Sfrp1 genes were measured according to a qPCR method (FIG. 5C). […]
compound,measurement,setting,value
Cc1cc(-c2ccc(CC(=O)Nc3ccc(-c4cccnc4)cc3)cc2)ccn1 [C59],expression level of CoupTF1,[1],low
same,expression level of Foxg1,[1],high
same,expression level of Lhx2,[1],high
same,CoupTF1-negative Ctip2-positive cerebral cortex neurons induced,[2],a large number
